Target: T1, TGF-β receptor type-1 (TGFβR1) (Homo sapiens, UniProt P36897)
T1 sequence (P36897 200-503 limits assumed): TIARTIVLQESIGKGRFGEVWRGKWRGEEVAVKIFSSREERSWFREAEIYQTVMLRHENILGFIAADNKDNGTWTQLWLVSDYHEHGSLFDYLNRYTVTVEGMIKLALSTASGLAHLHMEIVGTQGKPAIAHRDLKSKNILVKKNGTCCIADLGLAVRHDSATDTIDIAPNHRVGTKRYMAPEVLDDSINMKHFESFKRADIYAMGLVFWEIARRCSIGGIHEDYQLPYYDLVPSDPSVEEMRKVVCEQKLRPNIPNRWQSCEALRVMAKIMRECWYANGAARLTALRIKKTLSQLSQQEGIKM
Test: SPR
Format: binding

- Kd: 24 µM
SMILES: CC(=O)O[C@@H]1C[C@H](O)[C@@]23COC(O)C1(C)[C@@H]2C[C@@H](O)[C@@]1(C)[C@@H]2C(=O)C[C@@H](c4ccoc4)[C@]2(C)[C@@H](OC(C)=O)C(=O)[C@@H]13 (stereo partly shown) [ITSN, Isotoosendanin]

Source: article PMC10372922 (Acta Pharmaceutica Sinica. B, 2023)
